In patent US7192607B2, “Formulations for the prevention or the treatment of diseases affecting mucosae or skin, or for pregnancy prevention, and an applicator for the delivery of topical formulations into mucosal cavities” (Infectio Recherche Inc, priority 2002, dated 2007):

What was measured:
HIV-1 (strain NL4-3) = test: Infectivity of HIV-1 (strain NL4-3) pretreated with SLS to 1G5 cells (luciferase activity); type: cell-based; details: virus pretreated with 500 μM SLS for 1 h at 37° C.; FIG. 3
Method: The effect of pretreating HIV-1 (strain NL4-3) with SLS on its infectivity to 1G5 cells, a Jurkat E6-1 derivative that harbors two stably integrated constructs made up of the luciferase gene under the control of the HIV-1SF2 LTR, has been also evaluated. In brief, prior to infection, the virus was incubated with either culture medium or 500 μM SLS for 1 h at 37° C. Cells (1×10^5 cells/well) were then incubated with HIV-1 strain NL4-3 (10 ng of p24) for 2 h at 37° C. under a 5% CO2 atmosphere. Afterwards, cells were washed, resuspended in 200 μl of complete culture medium and transferred in a 96-well flat-bottomed tissue culture plate (Microtest III, Falcon; Becton Dickinson, Lincoln Park, N.J.). After a 48 h incubation time at 37° C., cells were lysed, subject to a freeze-thaw cycle and luciferase activity was monitored using a microplate luminometer (MLX; Dynex Technologies, Chantilly, Va.).

HSV-1 (strain F) [1] = test: Murine cutaneous infection model, HSV-1 pretreated with SLS or DS; type: in vivo, hairless mice (SKH1)
Method: The effect of pretreating HSV-1 (strain F) with SLS on viral infectivity has also been evaluated in a murine cutaneous infection model. Female hairless mice (SKH1; Charles River Breeding Laboratories Inc., St-Constant, QC, Canada), 5–6 weeks old were used throughout this study. […] Mice were anesthetized by intraperitoneal injection of a mixture containing 70 mg/kg ketamine hydrochloride (Rogarsetic* injection USP; Rogar/STB Inc. Montreal, QC, Canada) and 11.5 mg/kg xylazine (Rompun®; Miles Canada Inc., Etobicoke, ON, Canada). The virus was inoculated on the lateral side of the body in the left lumbar skin area. The skin was scratched six times in a crossed-hatched pattern with a 27-gauge needle held vertically. Viral suspension (50 μl) was deposited onto the scarified area and rubbed for 10 to 15 see with a cotton tipped applicator saturated with EMEM+2% FBS or SLS or DS solutions. The scarified area was protected with a corn cushion which was maintained on the mice body with surgical tape. The porous inner wall of the aperture of the corn cushion was impermeabilized with tissue adhesive prior to use to prevent absorption of the drug. The aperture of the corn cushion was also closed with surgical tape. Mice were then returned to their cages and observed twice daily.
In infected untreated mice, no pathological signs of cutaneous infection were visible during the first four days following infection and only the scarified area remained appearent. On day 5, herpetic skin lesions began to appear in some mice in the form of small vesicles distant from the inoculation site. On day 6, almost all untreated mice developed herpetic skin lesions in the form of a 4–5 mm wide band extending from the spine to the ventral midline of the infected dermatome similar to zoster-like infections. Maximal mean lesion score was observed on day 8. Mean lesion score decreased thereafter from day 11 to day 15 because of spontaneous regression of cutaneous lesions in some mice. […] Of prime importance, all mice infected with the virus pretreated with 100 μM SLS survived the infection (data not shown).

HSV-2 (15589) = test: Infectivity of HSV-2 (15589), foscarnet-resistant strain, pretreated with SLS on Vero cells (PFU); type: cell-based, Herpes simplex virus type-2
Method: (§1) The effect of pretreating different strains of herpes viruses with SLS or DS on their viral infectivities to susceptible cells has been evaluated. In brief, cells were seeded in 24 well-plates (Costar, Montreal, QC, Canada). Prior to infection, the virus was either suspended in culture medium or phosphate buffered saline (PBS), or incubated with different concentrations of SLS in PBS for 1 h at 37° C. At confluency, cells were incubated with viral suspensions by centrifuging the plates (750× g for 45 min at 20° C.) to allow virus adsorption. Virus was removed and cell sheets were then overlaid with 0.5 ml of 0.6% agarose Seaplaque (Marine Colloids, Rockland, Md.) prepared in appropriate culture medium. The plates were incubated for 2 days at 37° C. Cells were then fixed with 10% formaldehyde in PBS for 20 min, washed with deionized water and stained with 0.05% methylene blue. Viral infectivity was evaluated via the determination of Plaque Forming Units (PFU).

HSV-2 (strain 333) = test: Murine intravaginal infection model, gel formulations applied prior to infection; type: in vivo, Balb/c mice; details: 2.5% SLS alone intravaginally 5 min prior to infection
Method: The efficacy of gel formulations to prevent the genital transmission of HSV-2 has been evaluated in a murine intravaginal infection model. In brief, female Balb/c mice aged 4 weeks were used for this study. To increase susceptibility of mice to herpes, 2.5 mg of progesterone (Depo-Provera) was administered subcutaneously to each mouse 7 days prior to and one day prior to inoculation with HSV-2. Anesthetized mice were inoculated with 5 μl of 2.4×10^7 pfu/ml of HSV-2 (strain 333) after swabbing the vagina with a calcium alginate thin tipped swab. To determine the efficacy of the gel formulations to block herpes infection, 15 μl of the gel was delivered with a pipette tip into the vagina a few minutes prior to the inoculation. The pipette tip was moved in and out four times to simulate stirring action of sexual intercourse while being cautious not to cause any bleeding.

[2] = tested on: rabbit, bovine and human papillomaviruses; details: brief treatment with low concentrations; Howett et al., 1999; cited from earlier work
HSV-1 (strain F) [3] = test: Infectivity of HSV-1 (strain F) to Vero cells after treatment with SLS or DS (plaque forming units); type: cell-based, Herpes simplex virus type-1; details: Vero cells preincubated 1 h at 37° C. with 6.25 to 100 μM SLS prior to infection; data not shown
HSV-2 (6) = test: Infectivity of HSV-2 (6), acyclovir-resistant strain, pretreated with SLS on Vero cells (PFU); type: cell-based, Herpes simplex virus type-2
Method: as §1

[4] = tested on: various HSV-1 and HSV-2 strains; test: Infectivity of HSV strains pretreated with SLS on Vero cells, text summary across strains; type: cell-based, Herpes simplex virus; details: pretreatment of the viruses with 50 μM SLS
Method: as §1
HSV-1 (strain F) infectivity was reduced to 21% when viral particles were pretreated with 25 μM SLS. The infectivities of all HSV-2 strains were between 50 to 70% following preincubation with 25 μM SLS. A complete loss of the infectivity of all strains tested were obtained following pretreatment of the viruses with 50 μM SLS.

[5] = virus pretreated with 6.25 μM SLS for 1 hour at 37° C.
[6] = virus pretreated with 12.5 μM SLS for 1 hour at 37° C.
[7] = virus pretreated with 25 μM SLS for 1 hour at 37° C.
[8] = virus pretreated with 50 μM SLS for 1 hour at 37° C.

In the case of `CCCCCCCCCCCCOS(=O)(=O)[O-].[Na+]` [SLS, Sodium lauryl sulfate], the “HIV-1 infectivity to 1G5 cells” value (HIV-1 (strain NL4-3)) is reported as “almost completely inhibited”, the cutaneous lesions (HSV-1 (strain F) [1]; virus pretreated with 100 μM SLS for 1 h at 37° C.) is reported as “did not demonstrate any signs of cutaneous lesions” and the “mice that survived the infection” value (HSV-1 (strain F) [1]; virus pretreated with 100 μM SLS, data not shown) is reported as “all”. The mean lesion score (HSV-1 (strain F) [1]; virus pretreated with 6.25 and 25 μM SLS for 1 h at 37° C.) was “did not demonstrate a significant reduction”, the “PFU (% of control) for HSV-2 (15589)” value (HSV-2 (15589); [5]) was 108.7 ± 22.2 % of control and the “PFU (% of control) for HSV-2 (15589)” value (HSV-2 (15589); [6]) was 115.1 ± 17.5 % of control. The “PFU (% of control) for HSV-2 (15589)” value (HSV-2 (15589); [7]) was 59.0 ± 4.0 % of control, the “PFU (% of control) for HSV-2 (15589)” value (HSV-2 (15589); [8]) was 0 % of control and the “mice that survived the infection” value (HSV-2 (strain 333)) was “all”. The signs of illness (HSV-2 (strain 333); up to 16 days post-infection) was “did not demonstrate any sign of illness”, the “effect against rabbit, bovine and human papillomaviruses (non-enveloped viruses)” value [2] was “effective” and the “infectivity of HSV-1 (strain F) after preincubation of Vero cells (not virus) with SLS” value (HSV-1 (strain F) [3]) was “did not result in a loss of infectivity”. The “PFU (% of control) for HSV-2 (6)” value (HSV-2 (6); [5]) was 105.3 ± 12.4 % of control, the “PFU (% of control) for HSV-2 (6)” value (HSV-2 (6); [6]) was 82.1 ± 40.7 % of control and the “PFU (% of control) for HSV-2 (6)” value (HSV-2 (6); [7]) was 51.1 ± 30.1 % of control. For the same molecule, the “PFU (% of control) for HSV-2 (6)” value (HSV-2 (6); [8]) was 0 % of control and the “infectivity of all strains tested” value [4] was “complete loss”.
